What was measured:
MAO-B [1] = biological target: T1, MAO-B (Rattus norvegicus, UniProt P19643); assay: Inhibition of MAO - in vitro, partially purified mitochondria from rat brain, 14C-phenethylamine (PEA) substrate (MAO-B); assay type: biochemical; details: substrate 14C-phenethylamine (PEA), preferred substrate for MAO-B
T1 construct: preparing mitochondria from rat brain by homogenation in phosphate buffer; from tissue; host or cells: rat brain mitochondria
T1 sequence (P19643 1-520): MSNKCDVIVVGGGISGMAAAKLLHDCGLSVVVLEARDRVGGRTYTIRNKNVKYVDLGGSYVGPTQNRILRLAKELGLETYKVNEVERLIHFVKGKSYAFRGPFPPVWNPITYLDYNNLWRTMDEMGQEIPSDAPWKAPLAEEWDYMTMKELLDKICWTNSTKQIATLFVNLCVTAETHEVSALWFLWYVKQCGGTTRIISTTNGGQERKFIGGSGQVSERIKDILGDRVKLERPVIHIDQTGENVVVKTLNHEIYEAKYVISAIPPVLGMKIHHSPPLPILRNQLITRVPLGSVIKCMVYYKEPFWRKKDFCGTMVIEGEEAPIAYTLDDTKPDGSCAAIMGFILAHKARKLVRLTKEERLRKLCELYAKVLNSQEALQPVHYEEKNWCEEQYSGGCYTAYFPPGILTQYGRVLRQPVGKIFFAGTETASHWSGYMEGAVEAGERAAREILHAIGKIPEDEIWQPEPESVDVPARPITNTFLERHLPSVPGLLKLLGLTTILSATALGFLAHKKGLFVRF
Description: (§1) The ability of a compound of structure 1 to inhibit MAO can be determined in vitro by the method of A. Christmas et al., Br. J. Pharmacol. 45, 490 (1972) in partially purified mitochondria from rat brain using ^14 C otyramine or ^14 C phenethylamine and ^14 C 5-HT as the substrate. The MAO inhibitory activity of a compound is expressed as the "IC50 " value, which is the molar concentration required to produce 50% inhibition of the enzyme. The IC50 values for certain compounds of structure 1 were determined using the above-described method, and the results are set forth in Table I.
(§2) The selectivity of a compound of structure 1 with respect to inhibition of MAO-A and MAO-B can be determined by preparing mitochondria from rat brain by homogenation in phosphate buffer (0.1 M, pH 7.2) followed by differential centrifugation. The mitochondria are suspended in the same buffer, the test compound is added at the desired concentration, and the system is incubated. At different time intervals, aliquots are taken and MAO activity is measured using ^14 C 5-hydroxytryptamine (5HT; a preferred substrate for MAO-A) or 14C -phenethylamine (PEA; a preferred substrate for MAO-B) as the substrates. The selectivity is expressed as the ratio of the inhibitory activity against MAO-B versus the inhibitory activity against MAO-A. (Zreika, McDonald, Bey, Palfreyman, J. Neurochem., 448-454 (1984)).

MAO-A [2] = biological target: T2, MAO-A (Rattus norvegicus, UniProt P21396); assay: Inhibition of MAO - in vitro, partially purified mitochondria from rat brain, 14C 5-hydroxytryptamine (5-HT) substrate (MAO-A); assay type: biochemical; details: substrate 14C 5-hydroxytryptamine (5HT), preferred substrate for MAO-A
T2 construct: preparing mitochondria from rat brain by homogenation in phosphate buffer; from tissue; host or cells: rat brain mitochondria
T2 sequence (P21396 1-526): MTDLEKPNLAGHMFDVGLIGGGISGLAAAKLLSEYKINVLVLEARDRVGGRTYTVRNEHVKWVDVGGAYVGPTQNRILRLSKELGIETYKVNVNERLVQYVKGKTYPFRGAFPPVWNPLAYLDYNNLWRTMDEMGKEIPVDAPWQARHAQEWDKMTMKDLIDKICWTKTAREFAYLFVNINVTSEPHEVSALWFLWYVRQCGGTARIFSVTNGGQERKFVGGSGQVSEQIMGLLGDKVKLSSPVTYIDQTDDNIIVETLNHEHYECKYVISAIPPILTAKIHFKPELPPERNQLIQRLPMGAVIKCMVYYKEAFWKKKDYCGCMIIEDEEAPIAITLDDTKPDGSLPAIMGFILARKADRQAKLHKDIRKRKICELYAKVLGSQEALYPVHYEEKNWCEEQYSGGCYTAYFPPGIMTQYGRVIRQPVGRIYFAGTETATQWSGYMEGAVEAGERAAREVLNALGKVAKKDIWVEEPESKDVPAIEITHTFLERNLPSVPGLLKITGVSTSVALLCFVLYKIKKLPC
Description: as §1, §2

MAO = details: selective at lower dosages, less selective at higher dosages; cited from earlier work
[3] = cited from earlier work; for clinical antidepressant effect: man
MAO-B [4] = biological target: T1, MAO-B; assay: Inhibition of MAO - ex vivo, brain mitochondria of orally dosed rats, 14C phenethylamine substrate (MAO-B); assay type: in vivo; details: po, brain mitochondrial fraction
Procedure: (§3) The test compound is administered orally (po) to rats and the animals are killed at various times after treatment. The brain is removed and a mitochondrial fraction, described in Example 12 is prepared. MAO activity is determined using ^14 C p-tyramine, as the substrate. Selectivity can be determined by repeating the above-described test using either ^14 C 5-hydroxytryptamine (for MAO-A) or ^14 C phenethylamine (for MAO-B) as the substrate for determining the % inhibition.

MAO-A [5] = biological target: T2, MAO-A; assay: Inhibition of MAO - ex vivo, brain mitochondria of orally dosed rats, 14C 5-hydroxytryptamine substrate (MAO-A); assay type: in vivo; details: po, brain mitochondrial fraction
Procedure: as §3

Row | Structure (SMILES) | IC50 (MAO-B [1]) [µM] | IC50 (MAO-A [2]) [µM] | preferential inhibition of MAO (in words) (MAO) | further results
1 | CCCCCCCCCCC/C(=C\F)CN [(E)-2-Undecyl-3-fluoroallylamine] | 0.5 | 0.75 | – | –
2 | Cc1cc(C(=O)NNCc2ccccc2)no1 [isocarboxazid] | – | – | not preferential in their action upon MAO | –
3 | C#CCN(C)CCCOc1ccc(Cl)cc1Cl [clorgyline] | – | – | – | clinical antidepressant effect [3]: clinically effective antidepressant agents
4 | N[C@@H]1C[C@H]1c1ccccc1 (relative stereo) [tranylcypromine] | – | – | not preferential in their action upon MAO | –
5 | C#CCN(C)Cc1ccccc1 [pargyline] | – | – | MAO-B is preferentially inhibited | clinical antidepressant effect [3]: clinically effective antidepressant agents
6 | CCCCCC/C(=C\F)CN [(E)-2-Hexyl-3-fluoroallylamine] | 0.007 | 0.17 | – | –
7 | CCCCCCC/C(=C\F)CN [(E)-2-Heptyl-3-fluoroallylamine] | 0.0045 | 0.06 | – | –
8 | NNCCc1ccccc1 [phenelzine] | – | – | not preferential in their action upon MAO | –
9 | CC(C)/C(=C\F)CN [(E)-2-Isopropyl-3-fluoroallylamine] | 2.5 | 170 | – | –
10 | CCC(C)/C(=C\F)CN (centres unmarked) [(E)-2-sec-Butyl-3-fluoroallylamine] | 7 | 170 | – | –
11 | CCCC/C(=C\F)CN [(E)-2-Butyl-3-fluoroallylamine] | 0.002 | 0.11 | – | –
12 | CC(C)C/C(=C\F)CN [(E)-2-Isobutyl-3-fluoroallylamine] | 0.03 | 2.3 | – | ED50 (MAO-B [4]): 0.05 mg/kg; ED50 (MAO-A [5]): 0.8 mg/kg
13 | C#CCN(C)[C@H](C)Cc1ccccc1 [L-deprenyl] | – | – | MAO-B is preferentially inhibited | cheese effect ([3]; low dosages where preferential inhibition of MAO-B occurs): not observed; clinical antidepressant effect [3]: clinically effective antidepressant agents; potentiation of L-DOPA in Parkinson's disease ([3]; treatment of Parkinson's disease): potentiate L-DOPA for the treatment of Parkinson's disease without producing peripheral side effects

— patent publication US4650907A, “Nonaromatic fluoroallylamine MAO inhibitors” (Merrell Dow Pharmaceuticals Inc., priority 1985, dated 1987)
